Reference: patent US10670605B2, “Cysteine reactive probes and uses thereof” (The Scripps Research Institute, priority 2015, dated 2020)

How the values were obtained:
Test in all cases: Competitive isoTOP-ABPP in situ (fragment-treated cells)
Format in all cases: cell-based
[1] = molecular target: cysteines in MDA-MB-231 and Ramos cells (Homo sapiens, UniProt Q96RP9); conditions: 200 μM, insitu
Description: (§1) Fragments 4 and 11 were screened at 100 μM in situ. […] Site-specific engagement of electrophilic fragments was assessed by blockade of IA-alkyne probe labeling. […] Ratios for unique peptide entries were calculated for each experiment; overlapping peptides with the same modified cysteine (e.g. different charge states, MudPIT chromatographic steps or tryptic termini) were grouped together and the median ratio was reported as the final ratio (R). The peptide ratios reported by CIMAGE were further filtered to ensure the removal or correction of low quality ratios in each individual dataset. […] R values were calculated and individual datasets were filtered as described above (R value calculation and processing).

[2] = molecular target: T1, cysteines in MDA-MB-231 and Ramos cells (Homo sapiens, UniProt P24468); conditions: 200 μM, insitu, 231
T1 sequence (P24468 1-414): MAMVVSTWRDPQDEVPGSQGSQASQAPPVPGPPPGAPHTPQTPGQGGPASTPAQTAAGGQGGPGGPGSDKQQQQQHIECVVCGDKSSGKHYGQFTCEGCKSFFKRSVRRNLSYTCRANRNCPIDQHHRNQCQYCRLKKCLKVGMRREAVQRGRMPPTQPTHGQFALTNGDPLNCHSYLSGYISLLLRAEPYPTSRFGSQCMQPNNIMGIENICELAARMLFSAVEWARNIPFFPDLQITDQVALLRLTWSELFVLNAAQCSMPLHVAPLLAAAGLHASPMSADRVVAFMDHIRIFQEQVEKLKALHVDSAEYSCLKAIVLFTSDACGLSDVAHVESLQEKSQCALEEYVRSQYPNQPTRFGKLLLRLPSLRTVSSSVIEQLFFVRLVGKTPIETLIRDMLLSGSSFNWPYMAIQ
Description: as §1

[3] = molecular target: T2, cysteines in MDA-MB-231 and Ramos cells (Homo sapiens, UniProt O00244); conditions: 200 μM, insitu
T2 sequence (O00244 1-68): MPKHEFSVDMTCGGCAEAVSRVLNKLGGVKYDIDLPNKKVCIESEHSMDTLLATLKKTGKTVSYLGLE
Description: as §1

[4] = molecular target: cysteines in MDA-MB-231 and Ramos cells (Homo sapiens, UniProt Q8WWI1); conditions: 200 μM, insitu
cysteines in MDA-MB-231 and Ramos cells (Homo sapiens, UniProt Q8WWI1), sequence (Q8WWI1 whole entry): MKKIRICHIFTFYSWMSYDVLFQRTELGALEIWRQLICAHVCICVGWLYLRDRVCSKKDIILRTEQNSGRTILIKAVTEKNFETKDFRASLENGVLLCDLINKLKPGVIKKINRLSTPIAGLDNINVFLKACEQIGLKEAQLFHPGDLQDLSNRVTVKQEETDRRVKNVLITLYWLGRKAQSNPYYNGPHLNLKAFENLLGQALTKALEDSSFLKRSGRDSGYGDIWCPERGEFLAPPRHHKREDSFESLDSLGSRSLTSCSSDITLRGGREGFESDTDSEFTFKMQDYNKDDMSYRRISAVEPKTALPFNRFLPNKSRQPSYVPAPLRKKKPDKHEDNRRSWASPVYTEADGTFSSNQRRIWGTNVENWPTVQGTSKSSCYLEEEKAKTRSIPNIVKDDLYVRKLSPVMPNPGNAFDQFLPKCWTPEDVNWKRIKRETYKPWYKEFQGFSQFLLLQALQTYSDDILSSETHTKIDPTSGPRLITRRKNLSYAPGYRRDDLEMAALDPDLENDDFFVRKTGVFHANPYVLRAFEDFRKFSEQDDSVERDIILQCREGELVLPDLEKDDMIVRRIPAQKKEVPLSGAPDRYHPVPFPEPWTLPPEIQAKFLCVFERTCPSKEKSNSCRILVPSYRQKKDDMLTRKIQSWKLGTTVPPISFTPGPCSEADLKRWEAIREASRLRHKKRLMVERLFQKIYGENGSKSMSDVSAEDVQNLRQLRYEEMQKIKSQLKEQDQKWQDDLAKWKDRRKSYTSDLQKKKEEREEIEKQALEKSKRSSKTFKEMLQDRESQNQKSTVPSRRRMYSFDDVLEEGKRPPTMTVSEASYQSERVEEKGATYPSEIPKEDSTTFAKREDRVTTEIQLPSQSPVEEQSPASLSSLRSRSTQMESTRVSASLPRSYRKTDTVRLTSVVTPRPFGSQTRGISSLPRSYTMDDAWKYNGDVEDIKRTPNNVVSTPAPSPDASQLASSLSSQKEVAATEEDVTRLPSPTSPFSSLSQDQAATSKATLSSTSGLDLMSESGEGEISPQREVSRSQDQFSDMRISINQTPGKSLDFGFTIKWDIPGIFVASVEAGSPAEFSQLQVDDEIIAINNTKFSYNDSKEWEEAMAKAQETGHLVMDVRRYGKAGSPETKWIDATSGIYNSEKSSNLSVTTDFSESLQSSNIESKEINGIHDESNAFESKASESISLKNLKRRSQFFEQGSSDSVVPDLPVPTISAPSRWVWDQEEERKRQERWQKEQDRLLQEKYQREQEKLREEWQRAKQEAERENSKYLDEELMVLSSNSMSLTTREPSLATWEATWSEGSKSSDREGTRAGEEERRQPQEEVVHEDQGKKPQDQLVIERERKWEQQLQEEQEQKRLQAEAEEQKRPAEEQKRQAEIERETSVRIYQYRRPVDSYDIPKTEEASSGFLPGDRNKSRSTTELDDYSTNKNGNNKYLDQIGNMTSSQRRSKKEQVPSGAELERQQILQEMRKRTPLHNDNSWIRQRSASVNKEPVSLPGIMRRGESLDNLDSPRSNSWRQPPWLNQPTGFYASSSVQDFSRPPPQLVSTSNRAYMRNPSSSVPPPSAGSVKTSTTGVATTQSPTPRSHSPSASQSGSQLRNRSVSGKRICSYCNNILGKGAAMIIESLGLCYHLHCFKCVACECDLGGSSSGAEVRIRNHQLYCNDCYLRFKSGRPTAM
Description: as §1

[5] = molecular target: cysteines in MDA-MB-231 and Ramos cells (Homo sapiens, UniProt P53634); conditions: 200 μM, insitu, 231
cysteines in MDA-MB-231 and Ramos cells (Homo sapiens, UniProt P53634), sequence (P53634 25-463): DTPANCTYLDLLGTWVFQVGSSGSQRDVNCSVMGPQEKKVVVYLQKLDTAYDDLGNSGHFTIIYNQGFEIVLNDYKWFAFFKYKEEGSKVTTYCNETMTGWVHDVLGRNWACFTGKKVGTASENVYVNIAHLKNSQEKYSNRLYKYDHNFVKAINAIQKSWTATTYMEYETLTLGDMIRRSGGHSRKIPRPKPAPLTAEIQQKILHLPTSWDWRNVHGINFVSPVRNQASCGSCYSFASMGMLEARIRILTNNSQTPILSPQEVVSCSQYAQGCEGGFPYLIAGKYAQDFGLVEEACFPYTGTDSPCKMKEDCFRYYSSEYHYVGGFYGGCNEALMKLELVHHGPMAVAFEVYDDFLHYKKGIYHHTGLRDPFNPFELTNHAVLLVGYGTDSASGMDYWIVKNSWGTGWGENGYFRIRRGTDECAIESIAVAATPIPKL
Description: as §1

[6] = molecular target: cysteines in MDA-MB-231 and Ramos cells (Homo sapiens, UniProt Q9Y676); conditions: 200 μM, insitu, 231
Description: as §1

[7] = molecular target: cysteines in MDA-MB-231 and Ramos cells (Homo sapiens, UniProt Q8NBS9); conditions: 200 μM, insitu, 231
cysteines in MDA-MB-231 and Ramos cells (Homo sapiens, UniProt Q8NBS9), sequence (Q8NBS9 33-432): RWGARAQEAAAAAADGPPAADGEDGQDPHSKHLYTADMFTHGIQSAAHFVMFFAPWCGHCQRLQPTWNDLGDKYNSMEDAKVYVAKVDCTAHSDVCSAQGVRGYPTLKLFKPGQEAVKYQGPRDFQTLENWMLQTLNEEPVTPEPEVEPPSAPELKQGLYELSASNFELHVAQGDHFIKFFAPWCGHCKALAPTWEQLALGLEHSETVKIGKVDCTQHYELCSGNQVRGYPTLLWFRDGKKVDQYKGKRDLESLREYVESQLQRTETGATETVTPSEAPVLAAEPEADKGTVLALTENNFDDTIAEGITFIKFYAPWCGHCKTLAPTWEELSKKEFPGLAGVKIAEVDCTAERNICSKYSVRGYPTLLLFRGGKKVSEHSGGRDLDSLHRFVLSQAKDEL
Description: as §1

[8] = molecular target: cysteines in MDA-MB-231 and Ramos cells (Homo sapiens, UniProt Q9Y3D2); conditions: 200 μM, insitu, 231
cysteines in MDA-MB-231 and Ramos cells (Homo sapiens, UniProt Q9Y3D2), sequence (Q9Y3D2 21-182): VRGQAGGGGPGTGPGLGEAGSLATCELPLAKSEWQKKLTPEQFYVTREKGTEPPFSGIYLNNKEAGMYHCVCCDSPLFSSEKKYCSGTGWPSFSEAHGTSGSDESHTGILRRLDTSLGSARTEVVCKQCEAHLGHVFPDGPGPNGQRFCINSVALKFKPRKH
Description: as §1

[9] = molecular target: T3, cysteines in MDA-MB-231 and Ramos cells (Homo sapiens, UniProt Q96RU2); conditions: 200 μM, insitu, 231
T3 sequence (Q96RU2 1-1077): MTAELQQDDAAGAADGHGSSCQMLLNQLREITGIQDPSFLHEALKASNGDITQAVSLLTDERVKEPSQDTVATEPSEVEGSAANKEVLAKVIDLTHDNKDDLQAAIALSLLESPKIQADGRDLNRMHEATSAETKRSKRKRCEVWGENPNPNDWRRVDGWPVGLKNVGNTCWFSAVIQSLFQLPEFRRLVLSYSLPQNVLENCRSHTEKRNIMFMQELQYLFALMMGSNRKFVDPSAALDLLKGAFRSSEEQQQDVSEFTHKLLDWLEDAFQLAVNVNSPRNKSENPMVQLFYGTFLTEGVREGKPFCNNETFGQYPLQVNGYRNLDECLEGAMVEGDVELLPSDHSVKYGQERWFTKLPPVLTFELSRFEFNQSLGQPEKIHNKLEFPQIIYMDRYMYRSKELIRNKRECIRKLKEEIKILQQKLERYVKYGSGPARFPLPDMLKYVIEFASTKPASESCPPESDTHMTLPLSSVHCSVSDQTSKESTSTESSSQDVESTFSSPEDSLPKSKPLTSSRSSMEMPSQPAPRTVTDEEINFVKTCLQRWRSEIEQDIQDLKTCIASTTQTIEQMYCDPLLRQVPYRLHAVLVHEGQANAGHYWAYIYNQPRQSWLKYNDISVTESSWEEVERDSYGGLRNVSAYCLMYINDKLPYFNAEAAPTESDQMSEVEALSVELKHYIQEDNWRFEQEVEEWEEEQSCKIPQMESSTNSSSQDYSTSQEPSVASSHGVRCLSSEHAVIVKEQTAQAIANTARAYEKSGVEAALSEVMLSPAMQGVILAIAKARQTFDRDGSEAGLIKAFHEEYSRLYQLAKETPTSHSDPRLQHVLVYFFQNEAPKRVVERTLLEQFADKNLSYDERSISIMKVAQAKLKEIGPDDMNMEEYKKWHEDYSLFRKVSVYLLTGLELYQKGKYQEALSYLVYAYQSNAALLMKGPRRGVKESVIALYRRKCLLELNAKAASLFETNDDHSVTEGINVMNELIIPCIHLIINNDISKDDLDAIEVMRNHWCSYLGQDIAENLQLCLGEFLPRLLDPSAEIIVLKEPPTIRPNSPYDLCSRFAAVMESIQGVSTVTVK
Description: as §1

[10] = molecular target: T4, cysteines in MDA-MB-231 and Ramos cells (Homo sapiens, UniProt Q9Y570); conditions: 200 μM, insitu
T4 sequence (Q9Y570 1-386): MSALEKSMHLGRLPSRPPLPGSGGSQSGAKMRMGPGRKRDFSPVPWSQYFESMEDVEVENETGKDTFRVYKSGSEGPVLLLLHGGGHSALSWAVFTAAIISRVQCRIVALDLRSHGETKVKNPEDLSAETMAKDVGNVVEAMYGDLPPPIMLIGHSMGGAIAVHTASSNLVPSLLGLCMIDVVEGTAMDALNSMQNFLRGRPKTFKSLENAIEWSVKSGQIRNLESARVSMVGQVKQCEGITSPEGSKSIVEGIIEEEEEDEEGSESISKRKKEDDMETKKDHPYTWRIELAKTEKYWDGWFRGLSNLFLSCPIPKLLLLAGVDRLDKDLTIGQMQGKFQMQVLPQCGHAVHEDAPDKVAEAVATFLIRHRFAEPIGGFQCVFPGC
Description: as §1

[11] = molecular target: T5, cysteines in MDA-MB-231 and Ramos cells (Homo sapiens, UniProt Q9Y5Y2); conditions: 200 μM, insitu
T5 sequence (Q9Y5Y2 1-271): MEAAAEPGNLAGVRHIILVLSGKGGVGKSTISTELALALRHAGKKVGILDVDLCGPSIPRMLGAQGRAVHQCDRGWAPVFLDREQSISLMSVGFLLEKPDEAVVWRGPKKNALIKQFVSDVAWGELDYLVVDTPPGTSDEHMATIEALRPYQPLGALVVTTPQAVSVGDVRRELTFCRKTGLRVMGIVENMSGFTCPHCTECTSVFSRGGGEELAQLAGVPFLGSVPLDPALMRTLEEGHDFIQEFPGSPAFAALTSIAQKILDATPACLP
Description: as §1

cysteines in MDA-MB-231 and Ramos cells (Homo sapiens, UniProt Q96RP9), sequence (Q96RP9 37-751): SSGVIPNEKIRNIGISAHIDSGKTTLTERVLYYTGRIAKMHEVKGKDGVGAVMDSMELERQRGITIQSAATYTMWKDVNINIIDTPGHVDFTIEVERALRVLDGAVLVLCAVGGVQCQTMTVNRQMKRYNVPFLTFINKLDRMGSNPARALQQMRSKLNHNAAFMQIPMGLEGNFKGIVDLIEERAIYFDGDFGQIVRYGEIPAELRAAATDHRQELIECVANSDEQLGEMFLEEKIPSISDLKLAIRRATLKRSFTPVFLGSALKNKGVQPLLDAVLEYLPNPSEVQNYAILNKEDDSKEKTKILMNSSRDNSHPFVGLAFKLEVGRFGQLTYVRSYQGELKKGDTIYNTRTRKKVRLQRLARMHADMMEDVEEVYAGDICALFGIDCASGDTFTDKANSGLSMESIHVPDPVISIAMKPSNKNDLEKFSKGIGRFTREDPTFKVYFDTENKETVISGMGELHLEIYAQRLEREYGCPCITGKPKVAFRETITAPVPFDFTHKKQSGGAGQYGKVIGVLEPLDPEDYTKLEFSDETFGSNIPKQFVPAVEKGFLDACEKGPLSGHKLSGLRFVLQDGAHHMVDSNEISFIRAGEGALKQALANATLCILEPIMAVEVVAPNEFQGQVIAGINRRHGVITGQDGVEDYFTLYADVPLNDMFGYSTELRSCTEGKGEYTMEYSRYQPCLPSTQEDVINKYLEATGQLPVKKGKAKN

## O=C(CCl)NC12CC3CC(CC(C3)C1)C2 [compound 21]
[1]; 231
  isoTOP-ABPP ratio, cysteine Q96RP9_C153: 1.4
[2]
  isoTOP-ABPP ratio, cysteine P24468_C326: 1.1
[3]; 231
  isoTOP-ABPP ratio, cysteine O00244_C12: 0.7
[4]; 231
  isoTOP-ABPP ratio Q8WWI1_C228: 1.1
[5]
  isoTOP-ABPP ratio, cysteine P53634_C258: 2.8
[6]
  isoTOP-ABPP ratio Q9Y676_C128: 1.5

## CC(C)CCOCCNC(=O)CCl [compound 27]
[7]
  isoTOP-ABPP ratio Q8NBS9_C350: 1.1
[1]; 231
  isoTOP-ABPP ratio Q96RP9_C153: 1.6
[2]
  isoTOP-ABPP ratio P24468_C326: 1.2
[8]
  isoTOP-ABPP ratio Q9Y3D2_C105: 1.5
[3]; 231
  isoTOP-ABPP ratio O00244_C12: 0.4
[9]
  isoTOP-ABPP ratio, Q96RU2_C171: 1.1
[4]; 231
  isoTOP-ABPP ratio Q8WWI1_C228: 0.8
[6]
  isoTOP-ABPP ratio Q9Y676_C128: 1.0

## COc1ccccc1OCCNC(=O)CCl [compound 28]
[7]
  isoTOP-ABPP ratio Q8NBS9_C350: 1.1
[9]
  isoTOP-ABPP ratio, Q96RU2_C171: 1.1

## O=C(CCl)N1CCN(CC(=O)N2CCOCC2)CC1 [compound 29]
[1]; ramos
  isoTOP-ABPP ratio Q96RP9_C153: 1.2
[10]; ramos
  isoTOP-ABPP ratio Q9Y570_C381: 1.2
[3]; ramos
  isoTOP-ABPP ratio O00244_C12: 1.4
[4]; ramos
  isoTOP-ABPP ratio Q8WWI1_C228: 1.0
[11]; ramos
  isoTOP-ABPP ratio Q9Y5Y2_C72: 1.1

## C=CC(=O)N(Cc1cccnc1)c1cc(C(F)(F)F)cc(C(F)(F)F)c1 [compound 31]
[7]
  isoTOP-ABPP ratio Q8NBS9_C350: 0.8

## C=CC(=O)Nc1cc(F)c(N2CCN(C(=O)OC(C)(C)C)CC2)c(F)c1 [compound 38]
[8]
  isoTOP-ABPP ratio Q9Y3D2_C105: 1.6
[9]
  isoTOP-ABPP ratio, Q96RU2_C171: 0.8
[6]
  isoTOP-ABPP ratio Q9Y676_C128: 1.0
[11]; 231
  isoTOP-ABPP ratio Q9Y5Y2_C72: 1.7

## Cc1ccc(C=C(C#N)C(=O)NCCN2CCOCC2)cc1 [compound 41]
[7]
  isoTOP-ABPP ratio Q8NBS9_C350: 0.9
[1]; 231
  isoTOP-ABPP ratio Q96RP9_C153: 1.1
[2]
  isoTOP-ABPP ratio P24468_C326: 0.8
[10]; 231
  isoTOP-ABPP ratio Q9Y570_C381: 0.2
[8]
  isoTOP-ABPP ratio Q9Y3D2_C105: 1.2
[4]; 231
  isoTOP-ABPP ratio Q8WWI1_C228: 0.8

## CC1CCc2ccccc2N1C(=O)CCl (centres unmarked) [compound 45]
[7]
  isoTOP-ABPP ratio Q8NBS9_C350: 2.1
[2]
  isoTOP-ABPP ratio P24468_C326: 20.0
[8]
  isoTOP-ABPP ratio Q9Y3D2_C105: 20.0
[4]; 231
  isoTOP-ABPP ratio Q8WWI1_C228: 20.0
[6]
  isoTOP-ABPP ratio Q9Y676_C128: 2.0

## O=C(CCl)Nc1cccc2ncccc12 [compound 51]
[6]
  isoTOP-ABPP ratio Q9Y676_C128: 1.0
